Assay [1] deals with NZM mice. As to the kind of experiment: Survival, NZM mice, sc/ip dosing (Example 3). The class given is in vivo, mouse. The conditions noted are these: Groups 1, 2, and 4. As for the experimental part: FIG. 44 depicts survival of NZM mice across treatment groups for the study duration. NZM mice were treated as outlined in the legend. […] The overall percentage of surviving mice at the 91 day endpoint is listed in parentheses within the legend. * indicates p≦0.05.

Assay [2] has as its system NZM mice. As to the kind of experiment: Total urine protein (proteinuria), NZM mice (Example 3). Format: in vivo, mouse. The conditions noted are these: Groups 1, 2, 4, and 5. As for the experimental part: FIG. 45 depicts total urine protein (proteinuria) in NZM mice. Urine collected from NZM mice was analyzed for total protein content using a rat urinalysis kit.
Urine samples are acid precipitated for total protein analysis. For urine sample preparation, urine samples are centrifuged at 10,000 rpm for 3 minutes using a tabletop micro-centrifuge. 1-50 μL of urine supernatant is added in duplicate. PBS is added to adjust the volume to 50 μL total. For the turbidity assay: 25 μL of 0.1 N HCl is added into blank columns and 250 μL of 3% sulfosalicyclic acid into the test columns. The microplate is incubated for 10 minutes at RT and plates are read using an ELISA reader with single beam at 450 nm. A standard protein solution is prepared from normal mouse sera and is used as a standard for mouse urinary protein assay by turbidity. Standard preparation is as follows: 0, 5, 10, 15, 20, 30, 40, and 50 μL of a 4 mg/mL mouse sera standard protein solution as provided in the kit are added in duplicate into two columns. PBS is added to individual wells to adjust the final volume to 50 μL. Samples for which enough urine remains are used for Uristix® leukouria analysis. For the Uristix® strip assay, strips are laid out and labeled. Twenty microliters of urine are placed onto each test strip square and incubated for at least 30 seconds before the result is recorded. […]

In another assay the test system is NZB/W F1 mice. Particulars: lupus prone NZB/W F1 mice; cited from earlier work.
Another assay has as its system MRL/lpr mice. Particulars: 6 control animals, 5 on drug, p=0.03; cited from earlier work.

As to `CC(C)C[C@H](NC(=O)[C@@H](NC(=O)c1cccc(-c2ccccc2)n1)[C@@H](C)O)B(O)O` [COMPOUND A, [(1R)-1-[[(2S,3R)-3-hydroxy-2-[6-phenyl-pyridine-2-carbonyl)amino]-1-oxobutyl]amino]-3-methylbutylboronic acid], the “survival relative to vehicle” value in the assay with NZM mice [1] is “significantly increased survival”. Moreover, in the assay on NZM mice [2], the “proteinuria compared to vehicle (Group 10) and bortezomib ip (Group 7)” value is given as “reduced proteinuria”.

As for `CC(C)C[C@H](NC(=O)[C@H](Cc1ccccc1)NC(=O)c1cnccn1)B(O)O` [bortezomib, reference compound], in the assay with NZB/W F1 mice, the proteinuria entry is listed as “significantly reduced proteinuria”, the renal pathology entry is recorded as “improved renal pathology” and the “survival compared to vehicle” value is “markedly prolonged survival”. For the same compound, the survival result with MRL/lpr mice is reported as “significantly improved survival”.

The values above are taken from patent US9340559B2, “Proteasome inhibitor delanzomib for use in the treatment of lupus” (Cephalon, Inc., priority 2011, dated 2016).
